Source: ChEMBL document CHEMBL2046413, “Iridoid glucosides and a C₁₃-norisoprenoid from Lamiophlomis rotata and their effects on NF-κB activation” (Bioorg Med Chem Lett, 2012)

Key:
[1] = system: HEK293; test: Inhibition of LPS-induced NF-KB transcriptional activity expressed in HEK-293 cells at 1 ug/ml after 4 hrs by luciferase reporter gene assay relative to LPS-treated group; format: cell-based
[2] = system: HEK293; test: Inhibition of LPS-induced NF-KB transcriptional activity expressed in HEK-293 cells at 10 ug/ml after 4 hrs by luciferase reporter gene assay relative to LPS-treated group; format: cell-based
[3] = system: HEK293; test: Inhibition of LPS-induced NF-KB transcriptional activity expressed in HEK-293 cells at 100 ug/ml after 4 hrs by luciferase reporter gene assay relative to LPS-treated group; format: cell-based
[4] = system: HEK293; test: Inhibition of NF-KB production in human HEK293 cells by BCA protein assay; format: functional, cell-based

COC(=O)C1=CO[C@@H](O[C@@H]2O[C@H](CO)[C@@H](O)[C@H](O)[C@H]2O)[C@@H]2[C@@](C)(O)[C@H](O)[C@@H](O)[C@]12O
NF-κB luciferase activity relative to LPS-treated group [1]: 0.18
RLU [2]: 0.34
NF-κB luciferase activity relative to LPS-treated group [3]: 0.31

CCCCO[C@@H]1C=C(C)[C@H]2[C@H](O[C@@H]3O[C@H](CO)[C@@H](O)[C@H](O)[C@H]3O)OC=C(C(=O)OC)[C@H]21
NF-κB luciferase activity relative to LPS-treated group [1]: 0.15
RLU [2]: 0.38
NF-κB luciferase activity relative to LPS-treated group [3]: 0.48
inhibition [4]: Dose-dependent effect

COC(=O)C1=CO[C@@H](O[C@@H]2O[C@H](CO)[C@@H](O)[C@H](O)[C@H]2O)[C@@H]2C(C)=C[C@@H](O)[C@H]12
NF-κB luciferase activity relative to LPS-treated group [1]: 0.5
RLU [2]: 0.59
NF-κB luciferase activity relative to LPS-treated group [3]: 0.68

COC(=O)C1=CO[C@@H](O[C@@H]2O[C@H](CO)[C@@H](O)[C@H](O)[C@H]2O)[C@H]2[C@@H]1[C@H](O)[C@H](O)[C@]2(C)O
NF-κB luciferase activity relative to LPS-treated group [1]: 0.23
RLU [2]: 0.19
NF-κB luciferase activity relative to LPS-treated group [3]: 0.41

COC(=O)C1=CO[C@@H](O[C@@H]2O[C@H](COC(=O)c3cc(OC)c(O)c(OC)c3)[C@@H](O)[C@H](O)[C@H]2O)[C@H]2[C@@H]1[C@H](O)[C@@H]1O[C@]21C
NF-κB luciferase activity relative to LPS-treated group [1]: 0.55
RLU [2]: 0.32
NF-κB luciferase activity relative to LPS-treated group [3]: 0.48

C=CC(C)(O)CC/C=C(\C)C(=O)O[C@@H]1C[C@](C)(OC(C)=O)[C@H]2[C@H](O[C@@H]3O[C@H](CO)[C@@H](O)[C@H](O)[C@H]3O)OC=C(C(=O)OC)[C@H]21 (stereo partly specified)
NF-κB luciferase activity relative to LPS-treated group [1]: 0.25
RLU [2]: 0.21
NF-κB luciferase activity relative to LPS-treated group [3]: 0.31

COC(=O)C1=CO[C@@H](O[C@@H]2O[C@H](CO)[C@@H](O)[C@H](O)[C@H]2O)[C@H]2[C@@H]1[C@H](OC(=O)c1cc(OC)c(O)c(OC)c1)C[C@]2(C)OC(C)=O
NF-κB luciferase activity relative to LPS-treated group [1]: 0.12
RLU [2]: 0.08
NF-κB luciferase activity relative to LPS-treated group [3]: 0.42

COC(=O)C1=CO[C@@H](O[C@@H]2O[C@H](CO)[C@@H](O)[C@H](O)[C@H]2O)[C@@H]2[C@H](C)[C@@H](O)C[C@H]12
NF-κB luciferase activity relative to LPS-treated group [1]: 0.14
RLU [2]: 0.13
NF-κB luciferase activity relative to LPS-treated group [3]: 0.26

C=C1C[C@@H](O)[C@@H]2C(C(=O)OC)=CO[C@@H](O[C@@H]3O[C@H](CO)[C@@H](O)[C@H](O)[C@H]3O)[C@H]12
NF-κB luciferase activity relative to LPS-treated group [1]: 0.26
RLU [2]: 0.43
NF-κB luciferase activity relative to LPS-treated group [3]: 0.4

COC(=O)C1=CO[C@@H](O[C@@H]2O[C@H](CO)[C@@H](O)[C@H](O)[C@H]2O)[C@H]2[C@@H]1[C@H](OC(C)=O)C[C@]2(C)O
NF-κB luciferase activity relative to LPS-treated group [1]: 0.06
RLU [2]: 0.13
NF-κB luciferase activity relative to LPS-treated group [3]: 0.11

COC(=O)C1=CO[C@@H](O[C@@H]2O[C@H](CO)[C@@H](O)[C@H](O)[C@H]2O)[C@@H]2[C@@](C)(O)[C@@H](O)[C@@H](O)[C@]12O
NF-κB luciferase activity relative to LPS-treated group [1]: 0.56
RLU [2]: 0.34
NF-κB luciferase activity relative to LPS-treated group [3]: 0.49

COC(=O)C1=CO[C@@H](O[C@@H]2O[C@H](CO)[C@@H](O)[C@H](O)[C@H]2O)[C@H]2[C@@H]1[C@H](O)[C@H](O)[C@@]2(C)O
NF-κB luciferase activity relative to LPS-treated group [1]: 0.37
RLU [2]: 0.15
NF-κB luciferase activity relative to LPS-treated group [3]: 0.38

COC(=O)C1=CO[C@@H](O[C@@H]2O[C@H](CO)[C@@H](O)[C@H](O)[C@H]2O)[C@@H]2[C@@]3(C)O[C@H]3[C@@H](O)[C@]12O
NF-κB luciferase activity relative to LPS-treated group [1]: 0.15
RLU [2]: 0.14
NF-κB luciferase activity relative to LPS-treated group [3]: 0.36

COC(=O)C1=CO[C@@H](O[C@@H]2O[C@H](CO)[C@@H](O)[C@H](O)[C@H]2O)[C@H]2[C@@H]1[C@H](O)C[C@]2(C)O
NF-κB luciferase activity relative to LPS-treated group [1]: 0.39
RLU [2]: 0.21
NF-κB luciferase activity relative to LPS-treated group [3]: 0.31

COC(=O)C1=CO[C@@H](O[C@@H]2O[C@H](CO)[C@@H](O)[C@H](O)[C@H]2O)[C@H]2[C@@H]1[C@H](O)[C@@H](Cl)[C@]2(C)O
NF-κB luciferase activity relative to LPS-treated group [1]: 0.05
RLU [2]: 0.19
NF-κB luciferase activity relative to LPS-treated group [3]: 0.22

COC(=O)C1=CO[C@@H](O[C@@H]2O[C@H](CO)[C@@H](O)[C@H](O)[C@H]2O)[C@H]2[C@@H]1[C@H](O)[C@@H]1O[C@]21C
NF-κB luciferase activity relative to LPS-treated group [1]: 0.23
RLU [2]: 0.46
NF-κB luciferase activity relative to LPS-treated group [3]: 0.42

C[C@]12CCC(=O)C=C1CC[C@@H]1[C@@H]2[C@@H](O)C[C@@]2(C)[C@H]1CC[C@]2(O)C(=O)CO
NF-κB luciferase activity relative to LPS-treated group [1]: 0.26
RLU [2]: 0.32
NF-κB luciferase activity relative to LPS-treated group [3]: 0.45

COC(=O)C1=CO[C@@H](O[C@@H]2O[C@H](CO)[C@@H](O)[C@H](O)[C@H]2O)[C@@H]2C(C)=C[C@@H](O)[C@]12O
NF-κB luciferase activity relative to LPS-treated group [1]: 0.06
RLU [2]: 0.18
NF-κB luciferase activity relative to LPS-treated group [3]: 0.24
inhibition [4]: Dose-dependent effect

COC(=O)C1=CO[C@@H](O[C@@H]2O[C@H](CO)[C@@H](O)[C@H](O)[C@H]2O)[C@@H]2[C@H](C)CC[C@H]12
NF-κB luciferase activity relative to LPS-treated group [1]: 0.23
RLU [2]: 0.44
NF-κB luciferase activity relative to LPS-treated group [3]: 0.62
inhibition [4]: Dose-dependent effect

COC(=O)C1=CO[C@@H](O[C@@H]2O[C@H](CO)[C@@H](O)[C@H](O)[C@H]2O)[C@@H]2[C@@H](C)[C@@H](O)C[C@H]12
NF-κB luciferase activity relative to LPS-treated group [1]: 0.66
RLU [2]: 0.56
NF-κB luciferase activity relative to LPS-treated group [3]: 0.56

COC(=O)C1=CO[C@@H](O[C@@H]2O[C@H](CO)[C@@H](O)[C@H](O)[C@H]2O)[C@H]2[C@@H]1[C@H](O)C[C@]2(C)OC(C)=O
NF-κB luciferase activity relative to LPS-treated group [1]: 0.13
RLU [2]: 0.4
NF-κB luciferase activity relative to LPS-treated group [3]: 0.34
